Reference: patent US12052991B2, “Substituted pyridinyloxybenzenes and salts thereof and use thereof as herbicidal agents” (Bayer Aktiengesellschaft, priority 2018, dated 2024)

Tests used:
Format in all cases: in vivo
[1] = system: Echinochloa crus-galli (ECHCG); assay: Herbicidal pre-emergence action, test C (Table C1); details: dosage 1280 g/ha; visual scoring after about 3 weeks; 100% = plants have died, 0% = like control plants
From the text: (§1) Seeds of mono- and dicotyledonous weed plants were placed in plastic pots in sandy loam soil (doubly sown with one species each of mono- or dicotyledonous weed plants per pot) and covered with soil. The compounds of the invention, formulated in the form of wettable powders (WP) or as emulsion concentrates (EC), were then applied onto the surface of the covering soil as aqueous suspension or emulsion with addition of 0.5% additive at a water application rate of 600 liters per hectare (converted). After the treatment, the pots were placed in a greenhouse and kept under good growth conditions for the test plants. After about 3 weeks, the effect of the preparations was scored visually in comparison with untreated controls as percentages. For example, 100% activity=the plants have died, 0% activity=like control plants. Tables C1 to C12 below show the effects of selected compounds of the general formula (I) according to Table 1 on various harmful plants and an application rate corresponding to 1280 or 320 g/ha, which were obtained by the experimental procedure mentioned above.

Stellaria media (STEME) [2] = assay: Herbicidal pre-emergence action, test C (Table C8); details: visual scoring after about 3 weeks, 100% = plants have died, 0% = like control plants
Procedure, shortened: (§2)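 Sandy loam, doubly sown pots; surface spray pre-emergence; 1280 or 320 g/ha; 0.5% additive; 600 L/ha. Greenhouse, ~3 weeks. Visual % vs untreated.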

Veronica persica (VERPE) [3] = assay: Herbicidal pre-emergence action, test C (Table C12); details: dosage 1280 g/ha, visual scoring vs untreated controls
Procedure, shortened: as §2

Veronica persica (VERPE) [4] = assay: Herbicidal post-emergence action (Table B12); details: visual rating about 3 weeks after treatment, 100% = plants have died, 0% = like control plants
Procedure, shortened: (§3)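 Weeds grown from seed in sandy loam in the greenhouse were sprayed at the one-leaf stage, 2 to 3 weeks after sowing, with WP or EC formulations in water plus 0.5% additive at 600 L/ha. Rates corresponded to 1280 or 320 g/ha; damage was rated visually versus untreated controls after about 3 weeks.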

Bassia scoparia (KCHSC) [5] = assay: Herbicidal pre-emergence action, test C (Table C11); details: visual scoring vs untreated controls
From the text: as §1

[6] = system: Matricaria inodora (MATIN); assay: Herbicidal pre-emergence action, test C (Table C7); details: dosage 1280 g/ha; visual scoring after about 3 weeks; 100% = plants have died, 0% = like control plants
Procedure, shortened: as §2

[7] = system: harmful plants ABUTH, AMARE, ECHCG, LOLRI, MATIN, POAAN, SETVI, STEME, ALOMY, DIGSA, KCHSC and VERPE; assay: Herbicidal pre-emergence action (test C), summary of Tables C1-C12; details: application rate of 1280 or 320 g of active ingredient per hectare; summary in words
Procedure, shortened: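 Pre-emergence pot test in sandy loam: WP or EC formulations were sprayed onto the covering soil with 0.5% additive at 600 L/ha water, at 1280 or 320 g/ha. Plants were kept in the greenhouse, and activity was rated visually about 3 weeks later as % versus untreated controls (100% = dead).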

[8] = system: Echinochloa crus-galli (ECHCG); assay: Herbicidal post-emergence action (Table B1); details: rated visually after about 3 weeks, 100% = plants have died, 0% = like control plants
Procedure, shortened: as §3

[9] = system: Digitaria sanguinalis (DIGSA); assay: Herbicidal pre-emergence action, test C (Table C10); details: dosage 1280 g/ha; visual scoring after about 3 weeks; 100% = plants have died, 0% = like control plants
Procedure, shortened: as §2

Poa annua (POAAN) [10] = assay: Herbicidal post-emergence action (Table B3); details: rated visually after about 3 weeks, 100% = plants have died, 0% = like control plants
Procedure, shortened: as §3

Bassia scoparia (KCHSC) [11] = assay: Herbicidal post-emergence action (Table B11); details: visual rating about 3 weeks after treatment, 100% = plants have died, 0% = like control plants
Procedure, shortened: as §3

Stellaria media (STEME) [12] = assay: Herbicidal post-emergence action (Table B8); details: visual rating about 3 weeks after treatment, 100% = plants have died, 0% = like control plants
Procedure, shortened: as §3

[13] = system: Alopecurus myosuroides (ALOMY); assay: Herbicidal post-emergence action (Table B9); details: rated visually after about 3 weeks, 100% = plants have died, 0% = like control plants
Procedure, shortened: as §3

Poa annua (POAAN) [14] = assay: Herbicidal pre-emergence action, test C (Table C3); details: visual scoring after about 3 weeks, 100% = plants have died, 0% = like control plants
Procedure, shortened: as §2

[15] = system: Digitaria sanguinalis (DIGSA); assay: Herbicidal post-emergence action (Table B10); details: dosage 1280 g/ha; visual rating about 3 weeks after treatment; 100% = plants have died, 0% = like control plants
Procedure, shortened: as §3

Setaria viridis (SETVI) = assay: Herbicidal pre-emergence action, test C (Table C4); details: dosage 1280 g/ha; visual scoring after about 3 weeks; 100% = plants have died, 0% = like control plants
Procedure, shortened: as §2

[16] = system: Amaranthus retroflexus (AMARE); assay: Herbicidal post-emergence action (Table B6); details: visual rating about 3 weeks after treatment, 100% = plants have died, 0% = like control plants
Procedure, shortened: as §3

[17] = system: harmful plants ABUTH, AMARE, ECHCG, LOLRI, MATIN, POAAN, SETVI, STEME, ALOMY, DIGSA, KCHSC and VERPE; assay: Herbicidal post-emergence action, summary of Tables B1-B12; details: application rate of 1280 or 320 g of active ingredient per hectare; summary in words
Procedure, shortened: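 Greenhouse weeds in sandy loam treated post-emergence at the one-leaf stage, 2–3 weeks after sowing, with WP or EC formulations sprayed with 0.5% additive at 600 L/ha water, 1280 or 320 g/ha. Damage rated visually after about 3 weeks versus untreated controls (0% = like control, 100% = dead).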

[18] = system: Abutilon theophrasti (ABUTH); assay: Herbicidal pre-emergence action, test C (Table C5); details: visual scoring after about 3 weeks, 100% = plants have died, 0% = like control plants
Procedure, shortened: as §2

[19] = system: Abutilon theophrasti (ABUTH); assay: Herbicidal post-emergence action (Table B5); details: rated visually after about 3 weeks, 100% = plants have died, 0% = like control plants
Procedure, shortened: as §3

[20] = system: Amaranthus retroflexus (AMARE); assay: Herbicidal pre-emergence action, test C (Table C6); details: visual scoring after about 3 weeks, 100% = plants have died, 0% = like control plants
Procedure, shortened: as §2

[21] = system: Alopecurus myosuroides (ALOMY); assay: Herbicidal pre-emergence action, test C (Table C9); details: visual scoring after about 3 weeks, 100% = plants have died, 0% = like control plants
From the text: as §1

FC(F)c1cc(-c2ccccc2Oc2ccccn2)on1 [Example 1-38]
Pre-emergence action against Echinochloa crus-galli (ECHCG) [1]: 100%
Pre-emergence action against Stellaria media (STEME) (Stellaria media (STEME) [2]; dosage 320 g/ha): 100%
Pre-emergence action against Stellaria media (STEME) (Stellaria media (STEME) [2]; dosage 1280 g/ha): 100%
Pre-emergence action against Veronica persica (VERPE) (Veronica persica (VERPE) [3]): 100%
Post-emergence action against Veronica persica (VERPE) (Veronica persica (VERPE) [4]; dosage 320 g/ha): 100%
Post-emergence action against Veronica persica (VERPE) (Veronica persica (VERPE) [4]; dosage 1280 g/ha): 100%
Pre-emergence action against Bassia scoparia (KCHSC) (Bassia scoparia (KCHSC) [5]; dosage 320 g/ha): 100%
Pre-emergence action against Bassia scoparia (KCHSC) (Bassia scoparia (KCHSC) [5]; dosage 1280 g/ha): 100%
Pre-emergence action against Matricaria inodora (MATIN) [6]: 100%
herbicidal activity against the harmful plants of Tables C1-C12 in pre-emergence treatment [7]: very good herbicidal activity
Post-emergence action against Echinochloa crus-galli (ECHCG) ([8]; 320 g/ha): 90%
Post-emergence action against Echinochloa crus-galli (ECHCG) ([8]; 1280 g/ha): 100%
Pre-emergence action against Digitaria sanguinalis (DIGSA) [9]: 100%
Post-emergence action against Poa annua (POAAN) (Poa annua (POAAN) [10]; 320 g/ha): 100%
Post-emergence action against Poa annua (POAAN) (Poa annua (POAAN) [10]; 1280 g/ha): 100%
Post-emergence action against Bassia scoparia (KCHSC) (Bassia scoparia (KCHSC) [11]; dosage 320 g/ha): 90%
Post-emergence action against Bassia scoparia (KCHSC) (Bassia scoparia (KCHSC) [11]; dosage 1280 g/ha): 100%
Post-emergence action against Stellaria media (STEME) (Stellaria media (STEME) [12]; dosage 320 g/ha): 100%
Post-emergence action against Stellaria media (STEME) (Stellaria media (STEME) [12]; dosage 1280 g/ha): 100%
Post-emergence action against Alopecurus myosuroides (ALOMY) ([13]; 320 g/ha): 100%
Post-emergence action against Alopecurus myosuroides (ALOMY) ([13]; 1280 g/ha): 100%
Pre-emergence action against Poa annua (POAAN) (Poa annua (POAAN) [14]; dosage 320 g/ha): 100%
Pre-emergence action against Poa annua (POAAN) (Poa annua (POAAN) [14]; dosage 1280 g/ha): 100%
Post-emergence action against Digitaria sanguinalis (DIGSA) [15]: 100%
Pre-emergence action against Setaria viridis (SETVI) (Setaria viridis (SETVI)): 100%
Post-emergence action against Amaranthus retroflexus (AMARE) ([16]; dosage 320 g/ha): 100%
Post-emergence action against Amaranthus retroflexus (AMARE) ([16]; dosage 1280 g/ha): 100%
herbicidal activity against the harmful plants of Tables B1-B12 in post-emergence treatment [17]: very good herbicidal activity
Pre-emergence action against Abutilon theophrasti (ABUTH) ([18]; dosage 320 g/ha): 100%
Pre-emergence action against Abutilon theophrasti (ABUTH) ([18]; dosage 1280 g/ha): 100%
Post-emergence action against Abutilon theophrasti (ABUTH) ([19]; 320 g/ha): 100%
Post-emergence action against Abutilon theophrasti (ABUTH) ([19]; 1280 g/ha): 100%
Pre-emergence action against Amaranthus retroflexus (AMARE) ([20]; dosage 320 g/ha): 100%
Pre-emergence action against Amaranthus retroflexus (AMARE) ([20]; dosage 1280 g/ha): 100%
Pre-emergence action against Alopecurus myosuroides (ALOMY) ([21]; dosage 320 g/ha): 90%
Pre-emergence action against Alopecurus myosuroides (ALOMY) ([21]; dosage 1280 g/ha): 100%
